{"source": "patent US8119689B2", "about": "“Adjuvants on the basis of bisacyloxypropylcystene conjugates and derivatives and their uses in pharmaceutical compositions” (Helmholtz-Zentrum Fuer Infektionsforschung GmbH, priority 2005, dated 2012)", "key": {"[1]": {"test_system": "β-gal-specific antibodies", "assay": "Serum β-gal-specific IgG titers after i.n. or s.c. vaccination (ELISA)", "type": "in vivo, BALB/c mice", "experimental": "FIG. 5: FIG. 5 illustrates the humoral responses following vaccination using BPPcysGlyc4armPEG and BPPcysAda, respectively, as adjuvant. Mice were immunised by intranasal (i.n.) and subcutaneous, transcutaneous (topical vaccination) (s.c.) routes with either β-galactosidase (30 μg) alone or β-galactosidase mixed with BPPcysGlyc4armPEG or BPPcysAda on days 0, 14 and 28. At day 38 post primary immunisation, serum samples were collected and the titre of 1-galactosidase-specific antibodies was determined by ELISA. As a control, a group in which animals were immunized with β-galactosidase alone was used (A). In (B) and (C) the kinetic of antigen specific serum IgG is shown for intranasal vaccination (B) and parenteral vaccination (C), respectively. […] Differences were statistically significant at p<0.05 (*) with respect to mice receiving antigen alone. One representative out of four independent experiments is shown. SEM is indicated by vertical lines.\nExperimental protocol: six-eight weeks-old female BALB/c (H-2d) mice were purchased from Harlan Winkelmann GmbH (Borchen, Germany) and treated in accordance with local and European Community guidelines. […] Endpoint titers were expressed as the reciprocal log2 of the last dilution, which gave an optical density at 405 nm of 0.1 units above the values of the negative controls after 15 to 30 min of incubation."}, "β-gal-specific IgA": {"test_system": "β-gal-specific IgA", "assay": "β-gal-specific secretory IgA in lung and vaginal lavages of i.n. immunized mice", "type": "in vivo, BALB/c mice", "details": "i.n. immunization", "experimental": "Differences were statistically significant at p<0.05 (*) with respect to mice receiving antigen alone. One representative out of four independent experiments is shown. SEM is indicated by vertical lines.\nAt day 38, mice were sacrificed and the final sampling was performed. Vaginal and lung ravages were obtained by flushing the organs with 1 ml of PBS supplemented with 50 mM EDTA, 0.1% BSA, and 10 mM PMSF. Lavages were then centrifuged to remove debris (10 min at 3000×g), and supernatant fluids were stored at −20° C. To determine the concentration of total IgA present in the lung and vaginal ravages, serial dilutions of the corresponding samples were incubated in microtiter plates that were previously coated with goat anti-mouse IgA (Sigma Chemie), as capture antibodies (100 μl/well). Serial dilutions of purified mouse IgA (Sigma Chemie) were used to generate a standard curve."}, "spleen cells": {"test_system": "spleen cells", "assay": "ELISPOT of cytokine producing spleen cells from vaccinated mice", "type": "in vivo", "experimental": "FIG. 9: FIG. 9 provides the cytokine profile (IFNγ, IL-4 and IL-2) secreted by in vitro re-stimulated spleen cells from mice vaccinated with either BPPcysGlyc4armPEG or BPPcysMPEG (A), or BPPcysAda (B) and the model antigen β-gal (30 μg) alone. Results are expressed as spot forming units with subtracted background in the immunized groups with respect to the non-immunized control mice. Differences were statistically significant at p<0.05 (*) with respect to mice receiving antigen alone.\nExperimental protocol: Spleens were removed and pooled for analysis of cellular immune responses. Cells were grown in RPMI 1640 supplemented with 10% fetal calf serum, 100 U/ml of penicillin, 50 μg/ml of streptomycin, 5×10^−5 M 2-mercaptoethanol and 1 mM L-glutamine (GIBCO BRL, Karlsruhe, Germany) and maintained at 37° C. in a humidified 5% CO2 atmosphere. […] Coat ELISPOT plate with 100 μl/well of purified capture antibody at 10 μg/ml in coating buffer, incubate at 4° C. overnight. After 6× washing steps, the plates were blocked with 200 μl/well of complete RPMI-1640 at room temperature for 1 hour. The activated cells were seeded at 100 μl per well and incubate at 37° C., in a 5% CO2 humidified incubator for 24 hours or 48 hours. After 5× washing steps with washing buffer and 1× step with distilled water, 100 μl/well of the biotinylated detection antibody with a concentration of 1 μg/ml in Assay Diluent was added and incubated at room temperature for 2 hrs. After further washing steps 100 μl/well of the AV-HRP at 1/1000 dilution in Assay Diluent was added and incubated at room temperature for 30 minutes. After further washing steps 100 μl/well of AEC Substrate Solution was added and developed at room temperature for 20-60 minutes until visible spots appeared. After washing steps with (3×) with 200 μl/well distilled water, the plates were air-dried and analyzed by counting the spots by an ELISPOT reader. Each concentration was tested in triplicates."}}, "note": "Entries after “also recorded” stand apart in the source; their conditions may differ.", "data": [{"smiles": "CCCCCCCCCCCCCCCC(=O)OCC(CSC[C@H](N)C(=O)N[C@H]1[C@@H](O)[C@H](n2cnc3c(N)ncnc32)O[C@@H]1CO)OC(=O)CCCCCCCCCCCCCCC", "note": "(single isomer, unassigned) [BPPcysAda, S-[2,3-bis(palmitoyloxy)-(2S or 2R)-propyl]-L-cysteinylcarboxy-3′Amino-3′-deoxyadenosine]", "values": [{"measurement": "β-gal-specific serum IgG titers, i.n. administration", "setting": "[1]; i.n. with β-gal, vs antigen alone", "value": "enhanced expression; also recorded: very high titers; also recorded: significantly higher levels"}, {"measurement": "β-gal-specific serum IgG titers, s.c. route", "setting": "[1]; s.c. co-injection with β-gal, vs β-gal alone", "value": "enhanced expression; also recorded: increased"}, {"measurement": "β-gal-specific IgA in vaginal lavages", "setting": "β-gal-specific IgA; day 38", "value": "significantly higher levels"}, {"measurement": "β-gal-specific IgA in lung lavages (BAL)", "setting": "β-gal-specific IgA; day 38, vs antigen alone", "value": "significantly higher levels"}, {"measurement": "splenic IL-2 producing cells", "setting": "spleen cells; i.n. and s.c. route", "value": "enhanced expression"}, {"measurement": "splenic IL-4 producing cells", "setting": "spleen cells; i.n. and s.c. route", "value": "enhanced expression"}, {"measurement": "number of splenic IFNγ producing cells", "setting": "spleen cells; restimulation with MHC class I-restricted β-Galactosidase peptide", "value": "increment"}]}]}
